According to article PMC6072853 (Frontiers in Pharmacology, 2018):

What was measured:
[1] = tested on: T47D; experiment: MTT antiproliferative assay, T47D; assay type: cell-based, human; conditions: Homo sapiens, 72 h, read-out: Growth inhibition (%) ± SEM
Source text: (§1) Gynecological cancer cell lines, including ovarian (A2780), cervical (HeLa), and breast cancer cell lines (MCF7, T47D, MDA-MB-231, and MDA-MB-361) were purchased from the European Collection of Authenticated Cell Cultures (ECACC, Salisbury, United Kingdom). Additional cervical cell lines (SiHa and C33A) and a non-cancerous immortalized, mammary gland epithelial cell line (hTERT-HME1) were purchased from LGC Standards GmbH (Wesel, Germany). Non-cancerous fibroblast cells (MRC-5) were also obtained from the ECACC. All cells were cultured in minimal essential medium supplemented with 10% fetal bovine serum, 1% non-essential amino acids, and 1% antibiotic-antimycotic mixture, in humidified air containing 5% CO2 at 37°C. Immortalized hTERT-HME1 cells were maintained in serum-free mammary epithelial cell growth medium (MEGM) supplemented with insulin, human epidermal growth factor (hEGF), hydrocortisone, bovine pituitary extract, and an antibiotic-antimycotic mixture. All the medium and supplements were purchased from Lonza Group Ltd. (Basel, Switzerland).
(§2) The antiproliferative properties of the compounds were assessed by an MTT assay ([Mosmann, 1983]). Cells were seeded onto 96-well microplates at a density of 10,000 cells/well (MDA-MB-361 and C33A) or 5,000 cells/well (all other cell lines). After an overnight incubation, fresh medium containing the test compounds (at a concentration of 10 or 30 μM) was added. After incubation for 72 h at 37°C in humidified air, [3-(4,5-dimethylthiazol-2-yl)-2,5-diphenyltetrazolium bromide] (MTT) solution (5 mg/mL) was added. Purple formazan crystals were formed by the living cells during a 4 h contact period, which were assayed by spectrophotometry after having been dissolved in 100 μL DMSO. Untreated cells served as control, and cisplatin (CIS) (Ebewe Pharma GmbH, Unterach, Austria) was used as a reference compound. […] Two independent measurements were performed with five parallel wells. To present preliminary data concerning tumor selectivity of the potent compounds, the procedure was repeated on MRC-5 fibroblast and hTERT-HME1 immortalized mammary gland epithelial cells under the same experimental conditions.

[2] = tested on: SiHa; experiment: MTT antiproliferative assay, SiHa; assay type: cell-based, human; conditions: Homo sapiens, 72 h, read-out: Growth inhibition (%) ± SEM
Source text: as §1, §2

[3] = tested on: HeLa cells; experiment: Fluorescent double staining (Hoechst 33258 / propidium iodide) morphology; assay type: cell-based, human; conditions: 24 h, 1.0, 3.0 or 5.0 μM
Procedure: Fluorescent double staining was performed in order to detect apoptosis induction and morphological changes using fluorescent microscopy. HeLa cells were seeded into a 96-well plate at the density of 3,000Ȓ5,000 cells per well. After an overnight incubation, the cells were treated with various concentrations of the test compounds for 24 h. The treated cells were then incubated with a fluorescent staining solution (containing Hoechst 33258 and propidium iodide, 500 and 300 μg/mL, respectively) for an hour. After staining, the cells were analyzed using a fluorescent microscope (Nikon ECLIPSE 146 TS100, Nikon Instruments Europe, Amstelveen, Netherlands) equipped with appropriate optical filters. For all different conditions, at least six fields were recorded with an attached QCapture CCD camera. This way cells with an intact, apoptotic or necrotic morphology can be distinguished based on their different nuclear morphological appearance and distinct membrane integrity.

[4] = tested on: HeLa cells; experiment: Flow cytometric analysis of cell cycle; assay type: cell-based, human
Procedure: The distribution of cells in different cell cycle phases (subG1, G1, S and G2/M) was analyzed via the measurement of cellular DNA content by flow cytometry. HeLa cells were seeded onto 6-well plates and allowed to stand for an overnight. The cells were treated with the selected compounds for 24, 48, or 72 h. Then cells were harvested, washed and fixed in ice cold 70% ethanol and stored at −20°C at least for an hour. Next, a DNA staining solution (containing distilled water, propidium-iodide, Triton-X100, sodium citrate, and ribonuclease-A) was added to each sample and stored in the dark at room temperature for an hour. Stained cells were analyzed by flow cytometry (Partec CyFlow, Partec GmbH, Munster, Germany) with at least 20,000 cells being evaluated for each analysis. Data processing was performed using the ModFit LT 3.3.11 software (Verity Software House, Topsham, ME, United States).

[5] = molecular target: T1, human androgenic receptor (Homo sapiens, UniProt P10275); experiment: Yeast-based androgenic reporter assay, agonistic; assay type: cell-based; conditions: read-out: Calculated EC50 values, androgenic activity
T1 construct: host or cells: Saccharomyces cerevisiae
T1 sequence (P10275 1-920): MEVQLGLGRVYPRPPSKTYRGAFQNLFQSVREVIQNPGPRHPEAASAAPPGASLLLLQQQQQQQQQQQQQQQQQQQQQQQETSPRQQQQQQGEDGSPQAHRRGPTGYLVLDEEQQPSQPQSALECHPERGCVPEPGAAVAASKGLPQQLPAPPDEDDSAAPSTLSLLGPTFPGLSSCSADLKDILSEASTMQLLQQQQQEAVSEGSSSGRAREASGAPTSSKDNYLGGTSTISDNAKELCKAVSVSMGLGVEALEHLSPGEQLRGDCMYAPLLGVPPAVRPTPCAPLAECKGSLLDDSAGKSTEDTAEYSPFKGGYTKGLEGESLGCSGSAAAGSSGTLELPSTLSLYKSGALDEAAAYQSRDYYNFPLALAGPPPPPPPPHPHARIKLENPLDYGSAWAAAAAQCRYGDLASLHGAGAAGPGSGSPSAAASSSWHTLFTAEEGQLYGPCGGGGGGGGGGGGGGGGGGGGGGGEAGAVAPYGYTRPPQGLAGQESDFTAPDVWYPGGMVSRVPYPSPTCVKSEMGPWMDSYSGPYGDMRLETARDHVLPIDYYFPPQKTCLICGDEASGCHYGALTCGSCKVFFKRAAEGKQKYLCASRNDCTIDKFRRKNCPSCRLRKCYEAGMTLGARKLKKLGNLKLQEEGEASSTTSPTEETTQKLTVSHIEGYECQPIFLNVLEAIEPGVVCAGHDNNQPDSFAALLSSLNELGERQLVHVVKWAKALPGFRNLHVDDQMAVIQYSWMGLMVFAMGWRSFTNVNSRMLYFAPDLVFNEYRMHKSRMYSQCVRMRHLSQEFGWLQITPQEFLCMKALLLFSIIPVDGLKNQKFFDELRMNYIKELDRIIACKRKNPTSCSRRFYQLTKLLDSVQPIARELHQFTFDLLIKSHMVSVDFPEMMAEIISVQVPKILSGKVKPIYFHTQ
Procedure: Genetically modified yeast cells (Saccharomyces cerevisiae) containing the human androgenic receptor gene integrated into a yeast chromosome, as well as an expression plasmid with the sequences of both the androgen responsive element and a lacZ reporter gene were cultured in humidified air at 31°C with agitation for 2 days. The appropriate concentrations of the test compounds and a CPRG substrate solution (chlorophenol red-β-D-galactopyranoside) for β-galactosidase were added into a 96-well microplate according to the instructions of the manufacturer. Androgen agonistic and antagonistic properties of the test compounds were determined by a colorimetric assay. For the antagonistic measurements the medium was supplemented with 5α-dihydrotestosterone (DHT). Once the reporter gene is expressed, β-galactosidase is secreted into the medium, and converts the yellow CPRG substrate into a red product, which can be quantified at 570 nm. Quantities of this red product correlate with the liberation of β-galactosidase, which is increased when an agonistic effect is present, while it is decreased when the test compound exerts an antagonistic effect. For the agonistic and antagonistic assays, nandrolone (1) and flutamide were used as reference agents, respectively.

| SMILES | inhibition at 10 µM [1] | inhibition at 30 µM [1] | inhibition at 10 µM [2] | inhibition at 30 µM [2] | apoptotic and necrotic cell populations (morphology) [3] | effect on cell cycle phase distribution ([4]; 24 h) | effect on cell cycle phase distribution ([4]; 48 h) | effect on cell cycle phase distribution ([4]; 72 h) | EC50 [5] |
| --- | --- | --- | --- | --- | --- | --- | --- | --- | --- |
| C[C@]12CC[C@H]3[C@@H](CCC4=CC(=O)CC[C@@H]43)[C@@H]1CC[C@@H]2O [Compound 1, 19-nortestosterone, reference compound] | < 20% | < 20% | < 20% | 20.7 ± 2.6% | substantial and concentration-dependent increase in both the apoptotic and necrotic cell populations | significant decrease in the G1 and a moderate but significant increase in the G2/M phase cell population | these changes became more pronounced | concentration-dependent accumulation of hypodiploid cells | – |
| C[C@]12CC[C@H]3[C@@H](CCC4=CC(=O)CC[C@@H]43)[C@@H]1CC[C@H]2Cl [Compound 3] | < 20% | < 20% | < 20% | 26 ± 2.3% | substantial and concentration-dependent increase in both the apoptotic and necrotic cell populations | did not have any remarkable effect on cell cycle | substantially elevated increase of the subG1 population at the expense of G1 cells | – | 3.8 µM |
